{
  "source": "patent US9011853B2",
  "about": "“B7-H4 fusion proteins and methods of use thereof” (Amplimmune, Inc., priority 2009, dated 2015)",
  "key": {"[1]": {"tested_on": "CD4^+CD62L^+ naïve T cells", "test": "In vitro induction of iTreg cells, FACS for FoxP3/CD25", "type": "cell-based, mouse", "conditions": "SJL naïve T cells, 10 ng/mL TGF-β and 50 U/mL IL-2; 0, 1, 5 or 10 μg/mL (control IgG 10 μg/ml)", "procedure": "CD4^+CD62L^+ naïve T cells were first labeled with CFSE (5 μM) for 10 min at room temperature. The dye was quenched by the addition of 0.5 volumes of ice-cold fetal calf serum. The cells were incubated on ice for 5 min followed by centrifugation to collect the cell pellet. The cells were washed 2 more times in HL-1 culture media. The cells were then cultured in the presence of TGF-β (10 ng/mL) and IL-2 (10, 50, 100 U/mL) for 3 days before intracellular staining with anti-FoxP3 APC. FACS analysis was conducted to detect the FoxP3^+, in vitro expanded iTreg cells.\nTherefore, it was next examined if B7-H4-Ig treatment of naïve CD4^+CD62L^+ T cells in the presence of inducible Treg (iTreg) cell-promoting conditions would results in an increase in the numbers of CD4^+CD25^+FoxP3^+ iTreg cells. First the in vitro iTreg induction culture conditions were optimized to allow for experimental conditions to assess what additional effect, if any, B7-H4-Ig has on iTreg induction. CD4^+ T cells were isolated from female SJL mice. Purified mouse CD4^+CD62L^+ T cells were first labeled with CSFE and induced to iTreg cells in the presence of TGF-β (10 ng/mL) and IL-2 at concentrations of 0, 50 or 100 U/mL. FACS analysis was performed 3 days later to detect FoxP3 expression and CFSE content. A FoxP3 positive and CFSE diluted cell population was detected when using 100 U/mL of IL-2 for iTreg differentiation. […]"}, "[2]": {"tested_on": "CD4^+CD25^− T cells", "test": "Enteroantigen specific CD4+CD25- proliferation assay with cells from treated mice", "type": "in vivo, mouse", "conditions": "Balb/c mice", "procedure": "Extracts were prepared by removing the colon and cecum from mice and placing the content in PBS. This was sonicated 3 times for 30 seconds on ice, followed by centrifugation at 10,000 g for 10 min to remove insoluble material. The supernatant was collected, sterile filtered, and stored at −60° C. The protein concentration in the supernatants was typically 1 to 1.5 mg/mL as determined by the bicinchoninic acid (BCA) method.\nFemale wild-type Balb/c, 7 to 9 weeks of age, were injected with either 60 μg or 300 μg of B7-H4-Ig, intraperitoneally (IP), 3 times a week for 2 weeks. There were 5 mice in each group. B7-H4-Ig treated mice and also naïve control mice were euthanized for T cell isolation after 2 week treatment.\nThe CD4^+CD25^− T cells were obtained as follows: CD4^+ T cells were positively selected from spleen single-cell suspensions using a mouse anti-CD4 monoclonal antibody-coated DYNABEAD® and the DETACHABEAD® system (Dynal AS, Oslo, Norway) according to the manufacturer's instructions. Then the CD4^+ T cells ([…] assessed by flow cytometry) were separated into CD25^+ and CD25^− T cell populations by Miltenyi's magnetic bead technology (MACS®, Miltenyi Biotech, Belgisch Gladbach, Germany) using PE-labeled anti-CD25 monoclonal antibody, followed by the addition of anti-PE microbeads and depletion according to the manufacturer's instructions. […]"}},
  "data": [
    {"substance": "B7-H4-Ig: B7-H4 extracellular domain fused to Ig Fc; bare label is the human protein in Example 3, murine protein in Examples 1, 2, 5, 7-11", "values": [
      {"measurement": "percentage of FoxP3+CD25+ iTregs", "setting": "[1]", "result": "increased the percentage of FoxP3^+CD25^+ iTregs in a dose-dependent manner"},
      {"measurement": "enteroantigen specific CD4+CD25− T effector cell response", "setting": "[2]; 60 μg or 300 μg IP 3 times a week for 2 weeks (FIG. 52)", "result": "barely affected"},
      {"measurement": "Tregs from treated mice: blocking of enteroantigen priming and T cell proliferation", "setting": "[2]; 60 μg or 300 μg IP 3 times a week for 2 weeks, vs Tregs from control mice (FIG. 51)", "result": "more potent in blocking enteroantigen priming and T cell proliferation"}
    ]}
  ]
}
